What was measured:
[1] = tested on: 22Rv1 tumors; details: cited from earlier work
[2] = tested on: AR nuclear localization; details: cited from earlier work
[3] = tested on: AR; assay: Western blot with nucleocytoplasmic fractionation, AR level; format: cell-based, human; details: 10 nM, 20 h, C4-2, LN95, and 22Rv1
[4] = tested on: PC-3 cells; assay: Cell proliferation assay, PC-3; format: cell-based, human; details: PC-3, 10 μM, repeat experiment (Supplemental Fig. 2)
[5] = tested on: PSA expression in 22Rv1 cells (AR activity); assay: PSA ELISA of conditioned medium, 22Rv1 cells; format: cell-based, human
[6] = tested on: 22Rv1 xenograft tumor; assay: 22Rv1 xenograft tumor study in castrated mice; details: 10 mg/kg i.p. every day; (+)-JJ-74-138 compared to enzalutamide p < 0.05
[7] = tested on: PSA expression in C4-2 cells (AR activity); assay: PSA ELISA of conditioned medium, C4-2 cells; format: cell-based, human; details: C4-2, 48 h
[8] = tested on: DU145 cells; assay: Cell proliferation assay, DU145; format: cell-based, human; details: DU145, 10 μM, repeat experiment (Supplemental Fig. 2)
[9] = tested on: PSA expression in LN95 cells (AR activity); assay: PSA ELISA of conditioned medium, LN95 cells; format: cell-based, human
[10] = 22Rv1, 48 h, DHT 0-1000 nM with 10 μM compound
[11] = DHT 0-1000 nM with 10 μM (+)-JJ-74-138 or 1 or 10 μM enzalutamide
[12] = LN95, 48 h, DHT 0-1000 nM with 10 μM compound

SMILES: CC(C)(c1ccc(OCC(O)CO)cc1)c1ccc(OCC(O)CCl)cc1 (stereo not drawn) [EPI-001]
- sensitivity of 22Rv1 tumors [1]: resistant

SMILES: O=C(CSCc1cnoc1)N1CCN(c2ccccc2)CC1 [IMTPPE, 2-[(isoxazol-4-ylmethyl)thio]-1-(4-phenylpiperazin-1-yl)ethanone]
- androgen-independent AR nuclear localization [2]: inhibited androgen-independent AR nuclear localization

SMILES: C[C@]1(O)CC[C@H]2[C@@H]3CCC4=CC(=O)CCC4=C3C=C[C@@]21C [R1881]
- amount of total AR and nuclear AR level [3]: increased the amount of total AR, particularly the nuclear AR level

SMILES: CNC(=O)c1ccc(N2C(=S)N(c3ccc(C#N)c(C(F)(F)F)c3)C(=O)C2(C)C)cc1F [enzalutamide]
- cell growth [4]: minimal inhibitory effect
- DHT-stimulated PSA expression ([5]; 22Rv1, 10 μM, with DHT (Fig. 3A)): effectively inhibit DHT-stimulated PSA expression
- increase of EC50 of DHT induction of PSA [5, 10]: ~ 10 fold
- maximal PSA induction by high DHT dosages [5, 10]: alleviated by high doses of DHT
- survival (Kaplan-Meier, ad hoc analysis) [6]: did not differ from the vehicle control
- increase of EC50 of DHT induction of PSA [7, 11]: ~ 10 fold
- maximal PSA induction by high DHT dosages [7, 11]: alleviated by high doses of DHT
- inhibition at 10 µM ([7]; Homo sapiens, read-out: inhibition of PSA levels): ~70%
- cell growth [8]: minimal inhibitory effect
- inhibition at 10 µM ([9]; Homo sapiens, 48 h, read-out: inhibition of PSA levels): ~20%
- DHT-stimulated PSA expression ([9]; LN95, 10 μM, with DHT (Fig. 3A)): effectively inhibit DHT-stimulated PSA expression
- increase of EC50 of DHT induction of PSA [9, 12]: ~ 10 fold
- maximal PSA induction by high DHT dosages [9, 12]: alleviated by high doses of DHT

SMILES: CC/C(=C(\c1ccccc1)c1ccc(OCCN(C)C)cc1)c1ccccc1 [tamoxifen]
- PSA expression ([9]; LN95 cells (Supplemental Fig. 3)): did not affect PSA expression

Source: paper PMC8983459 (Molecular cancer therapeutics, 2022)
